{"source": "paper PMC7369900", "about": "(International Journal of Molecular Sciences, 2020)", "assay_in_all_cases": "microbe, parasite or virus in culture", "key": {"C. albicans SC 5314": {"test_system": "C. albicans SC 5314", "conditions": "Candida albicans, SC5314"}, "[1]": {"test_system": "C. albicans Δopt1Δopt5Δptr2Δptr22", "conditions": "Candida albicans"}, "C. albicans Gu4": {"test_system": "C. albicans Gu4", "conditions": "Candida albicans"}, "C. albicans Gu5": {"test_system": "C. albicans Gu5", "conditions": "Candida albicans"}, "C. glabrata DSM 11226": {"test_system": "C. glabrata DSM 11226", "conditions": "Nakaseomyces glabratus, DSM11226"}, "C. krusei DSM 6128": {"test_system": "C. krusei DSM 6128", "conditions": "Pichia kudriavzevii, DSM6128"}}}
{"smiles": "OC(Cn1cncn1)(Cn1cncn1)c1ccc(F)cc1F", "note": "[FLU, Fluconazole]", "values": [{"measurement": "MIC50", "setting": "C. albicans SC 5314", "value": 50, "unit": "µM"}, {"measurement": "MIC90", "setting": "C. albicans SC 5314", "value": 100, "unit": "µM"}, {"measurement": "MIC50", "setting": "[1]", "value": 50, "unit": "µM"}, {"measurement": "MIC90", "setting": "[1]", "value": 100, "unit": "µM"}, {"measurement": "MIC50", "setting": "C. albicans Gu4", "value": 50, "unit": "µM"}, {"measurement": "MIC50", "setting": "C. albicans Gu5", "value": "> 200", "unit": "µM"}, {"measurement": "MIC50", "setting": "C. glabrata DSM 11226", "value": 100, "unit": "µM"}, {"measurement": "MIC50", "setting": "C. krusei DSM 6128", "value": 50, "unit": "µM"}]}
